Laboratory results published in US20240302368A1, “MIGRATION OF HUMAN PERIPHERAL LEUKOCYTES IN RESPONSE TO CHEMOTACTIC FACTORS DURING PREGNACY” (The Governors of the University of Alberta, priority 2021, published 2024).
Entries after “also recorded” stand apart in the source; their conditions may differ.

Key:
CD-1 mice [1] = experiment: IL-1β-induced preterm birth (PTB) and fetal death in pregnant mice; assay type: in vivo, mouse; settings: for fetal death: IL-1β on GD 16 without or with rytvela, fetuses at GD 17
Description: (§1) CD-1 mice were ordered from Charles-River Laboratories Canada (Montreal, QC, Canada) and housed by Health Sciences Laboratory Animal Services at the University of Alberta. (Edmonton, AB, Canada) on a standard diet. Six groups of mice were euthanized at GD15, 17, 18, 18.5, 19 during spontaneous labor, and post-partum (PP)-1 Four groups of mice were anesthetized under isoflurane and a 1.5 cm-tall median incision was made in the lower abdominal wall. The lower segment of the right uterine hom was exposed, IL-1β (3 μg) or vehicle (0.9% saline) was injected between two fetal membranes, and the abdominal muscle layer and skin were sutured. Rytvela (1 mgikg, Elim Biopharmaceuticals, Hayward, CA) or vehicle (0.9% saline) was injected i.p. in a total volume of 100 μL saline, the first dose of which was given 30 min prior to administration of stimuli and three doses every 12 h thereafter. Animals were monitored for the onset of preterm labor (PTL) using infrared video camera recording commencing at GD16.5. Mice were euthanized at the onset of PTL or at GD17 From all ten groups of mice, lower uteri, upper uteri, placentas, fetal membranes and cervices were collected and normalized to wet tissue weight (100 mg/mL) in Dulbecco's Modified Eagle's Medium (DMEM) F-12 (Thermo Fisher Scientific, MA, USA). These tissues were homogenized by TissueLyser II (QIAGEN, Hilden, Germany) according to the manufacturer's protocol and centrifuged at 4° C., 13,000×g for 10 min to extract total protein. Maternal whole blood was collected via cardiac puncture. Whole fetuses (n=2 per dam) were also collected.

CD-1 mice [2] = experiment: Neutrophil (Ly-6G+) invasion of mouse lower uterus and fetal brain, immunohistochemistry; assay type: in vivo; settings: IL-1β on GD 16 without or with rytvela; compared to sham control; p<0.05
Description: as §1
Six cryosections (7 μm) per treatment group were prepared from snap-frozen lower uteri and fetal heads (n=2 per dam) and stained for neutrophils using a goat anti-mouse Ly-6G antibody (Invitrogen, Carlsbad, CA, USA) and a rat anti-goat secondary antibody tagged with an Alexa Fluor 488 fluorescence marker (Invitrogen). Cells were counterstained using Hoechst 33342 (Thermo Fisher Scientific) and tissue homology was confirmed with a hematoxylin and eosin stain (Thermo Fisher Scientific). Four different fields (20× optical zoom) were counted per section by two observers blinded to the specimen details. Areas containing blood vessels and leukocytes within blood vessels were excluded. The arithmetic mean was calculated for each sample between the two observers. In the fetus, we focused on leukocyte invasion of the brain because of the evidence associating maternal inflammation and adverse outcomes to the fetal brain (15, 28).

[3] = system: peripheral mouse leukocytes; experiment: Cytokine mRNA abundance in peripheral leukocytes of pregnant mice, RT-qPCR; assay type: in vivo; settings: GD 17 after IL-1β on GD 16, without or with rytvela; p<0.05
Description: (§2) CD-1 mice were ordered from Charles-River Laboratories Canada (Montreal, QC, Canada) and housed by Health Sciences Laboratory Animal Services at the University of Alberta. (Edmonton, AB, Canada) on a standard diet. Six groups of mice were euthanized at GD15, 17, 18, 18.5, 19 during spontaneous labor, and post-partum (PP)-1 Four groups of mice were anesthetized under isoflurane and a 1.5 cm-tall median incision was made in the lower abdominal wall. The lower segment of the right uterine hom was exposed, IL-1β (3 μg) or vehicle (0.9% saline) was injected between two fetal membranes, and the abdominal muscle layer and skin were sutured. […] Animals were monitored for the onset of preterm labor (PTL) using infrared video camera recording commencing at GD16.5. […]
Total RNA was extracted from mouse whole blood using the RNeasy protect animal blood system (Qiagen, Hilden, Germany) according to the manufacturer's protocol. RNA concentration were determined using a NanoDrop 1000 spectrophotometer to measure the optical density (OD) photometrically at 280 nm and 260 nm (an OD260 nm/280 nm ratio of >1.8 was considered protein-free RNA). cDNA was synthesized from 500 ng RNA using qScript cDNA SuperMix (Quanta Biosciences, MA, USA) according to the manufacturer's protocol. […]

mouse leukocytes = experiment: Mouse leukocyte migration assay (mLMA) with GD 18.5 lower uterus chemoattractant; assay type: in vivo; settings: GD 17 after IL-1β on GD 16, without or with rytvela, p<0.05
Description: (§3) CD-1 mice were ordered from Charles-River Laboratories Canada (Montreal, QC, Canada) and housed by Health Sciences Laboratory Animal Services at the University of Alberta. (Edmonton, AB, Canada) on a standard diet. Six groups of mice were euthanized at GD15, 17, 18, 18.5, 19 during spontaneous labor, and post-partum (PP)-1 Four groups of mice were anesthetized under isoflurane and a 1.5 cm-tall median incision was made in the lower abdominal wall. The lower segment of the right uterine hom was exposed, IL-1β (3 μg) or vehicle (0.9% saline) was injected between two fetal membranes, and the abdominal muscle layer and skin were sutured. Rytvela (1 mgikg, Elim Biopharmaceuticals, Hayward, CA) or vehicle (0.9% saline) was injected i.p. in a total volume of 100 μL saline, the first dose of which was given 30 min prior to administration of stimuli and three doses every 12 h thereafter. Animals were monitored for the onset of preterm labor (PTL) using infrared video camera recording commencing at GD16.5. […]
Total leukocytes were isolated from whole blood using HetaSep (Stemcell Technologies Canada Inc., BC. Canada) according to the manufacturer's protocol. […] Fluorescence in each well was measured using a Fluoroskan Ascent (Thermo Fisher Scientific), and the number of chemoattracted leukocytes was calculated using 4 parameter logistic regression.

IL-1 receptor = target: T1, IL-1 receptor (Mus musculus, UniProt P13504); settings: LPS-treated mice; cited from earlier work
T1 construct: host or cells: pregnant mice, in vivo
T1 sequence (P13504 20-576): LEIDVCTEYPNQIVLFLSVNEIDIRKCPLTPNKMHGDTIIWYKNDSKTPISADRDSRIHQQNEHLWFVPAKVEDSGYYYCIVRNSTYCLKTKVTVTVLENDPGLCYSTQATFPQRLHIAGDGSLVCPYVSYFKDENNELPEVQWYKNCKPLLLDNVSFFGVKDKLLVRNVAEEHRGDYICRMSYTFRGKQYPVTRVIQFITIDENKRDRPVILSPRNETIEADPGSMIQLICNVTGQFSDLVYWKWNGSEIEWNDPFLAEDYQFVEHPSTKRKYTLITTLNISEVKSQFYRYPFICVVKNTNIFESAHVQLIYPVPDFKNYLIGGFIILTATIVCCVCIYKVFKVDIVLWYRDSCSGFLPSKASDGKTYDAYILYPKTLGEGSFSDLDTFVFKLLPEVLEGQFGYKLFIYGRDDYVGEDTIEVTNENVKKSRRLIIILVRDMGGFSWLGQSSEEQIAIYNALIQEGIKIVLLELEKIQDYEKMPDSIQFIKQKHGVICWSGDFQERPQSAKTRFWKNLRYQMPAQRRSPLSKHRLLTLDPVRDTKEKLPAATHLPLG

IL-1 receptor (IL-1R) = target: T2, IL-1 receptor (IL-1R) (Mus musculus, UniProt P13504); settings: PTB induced by IL-1β, LTA or LPS; cited from earlier work
T2 construct: host or cells: pregnant mice, in vivo
T2 sequence (P13504 20-576): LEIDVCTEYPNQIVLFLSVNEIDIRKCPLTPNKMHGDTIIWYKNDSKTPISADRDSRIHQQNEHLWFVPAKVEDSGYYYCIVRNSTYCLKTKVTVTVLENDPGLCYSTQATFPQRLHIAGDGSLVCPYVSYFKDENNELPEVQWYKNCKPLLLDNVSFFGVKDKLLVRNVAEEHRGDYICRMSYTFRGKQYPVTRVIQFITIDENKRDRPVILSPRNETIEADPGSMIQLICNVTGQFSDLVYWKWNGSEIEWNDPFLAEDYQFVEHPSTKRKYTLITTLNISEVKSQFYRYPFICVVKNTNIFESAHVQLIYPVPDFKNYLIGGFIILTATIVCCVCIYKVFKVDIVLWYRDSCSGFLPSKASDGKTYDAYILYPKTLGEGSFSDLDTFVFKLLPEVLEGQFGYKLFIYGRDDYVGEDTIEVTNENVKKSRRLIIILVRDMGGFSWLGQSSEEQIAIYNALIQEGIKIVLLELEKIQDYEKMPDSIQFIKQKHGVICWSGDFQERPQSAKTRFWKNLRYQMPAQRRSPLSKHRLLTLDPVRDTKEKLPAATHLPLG

[4] = mouse; cited from earlier work
mouse lower uterus [5] = experiment: KC and MIP-2 protein in mouse lower uterus extracts, multiplex; assay type: in vivo; settings: IL-1β on GD 16, lower uterus at GD 17
Description: as §2
Mouse lower uterus tissue was suspended in DMEM-F12 medium (Thermo Fisher Scientific Inc., Ottawa, ON, Canada) at 100 mg wet tissue weight/mL and homogenized by TissueLyser II (Qiagen, Hilden, Germany) according to the manufacturer's instructions. […] Keratinocyte chemoattractant (KC) and macrophage inflammatory protein (MIP)-2 levels were measured by Bio-Plex Multiplex Immunoassay kit (Bio-Rad Laboratories, Hercules, CA, USA) according to the manufacturer's instructions.

mouse lower uterus [6] = experiment: Mouse lower uterine chemoattractant assessed by leukocyte migration assay (LMA); assay type: in vivo; settings: IL-1β on GD 16, chemoattractant on GD 17
Description: as §3
Total leukocytes were isolated from whole blood using HetaSep (Stemcell Technologies Canada Inc., BC. Canada) according to the manufacturer's protocol. […] Fluorescence in each well was measured using a Fluoroskan Ascent (Thermo Fisher Scientific), and the number of chemoattracted leukocytes was calculated using 4 parameter logistic regression. […]

hFM explants = hFM explants treated with IL-1β; conditioned medium tested in LMA; assay type: cell-based, human
Protocol: Leukocyte migration assay (LMA). The LMA was carried out with the Modified Boyden chemotaxis chambers (AP48; Neuro Probe, Gaithersburg, MD, USA) as we published (19). The chamber is divided into the upper and lower berths. Twenty-five microliters of fetal membrane extracts were placed in the lower chamber of each well. DMEM, as a negative control, was placed in the lower chamber. A polycarbonate membrane with 3 μm pores (Neuro Probe, Gaithersburg. MD, USA) was next placed over the lower chamber, followed by a rubber gasket. Then 100,000 isolated leukocytes from whole blood of pregnant women were placed in the upper chamber of each well. The chambers were incubated for 90 min at 37′C in a humidified air incubator containing 5% CO2. After incubation, migrated leukocytes were removed from the lower chamber and put into 5 mL BD Falcon™ polystyrene round bottom tubes (Thermo Fischer Scientific K.K., Yokohama, Japan). Three hundred microliters of OptiLyse (Beckman Coulter, Beckman Coulter, Inc., Brea, CA, USA) were added to lyse RBCs, and the sample was vortexed immediately for 1 sec. The tube was incubated for 15 min at room temperature (20-25° C.) while protected from light. […] 1×PBS was added to each tube. […] The lower chamber samples were then kept covered in a 4′C cold room until quantification using flow cytometry (BD FACS Verse, BD Biosciences, Tokyo, Japan). […]

TL leukocytes = TL leukocytes incubated with hFM conditioned medium -/+ IL-1β; double conditioned medium as chemoattractant in LMA; assay type: cell-based, human; settings: TL leukocytes treated with IL-1β plus hFM explant conditioned medium; fresh TL leukocytes migrate
Protocol: Leukocyte migration assay (LMA). The LMA for FIGS. 6 and 7 was performed as described above with the exception that 200,000 leukocytes were placed into the upper chamber. The LMA for FIGS. 3, 5 and FIG. 10 was performed using non-commercial, 3D printed Boyden chambers that produced nearly identical results to our published work with commercial Boyden chambers with the exception that the cutoff for predicting delivery within 7 days was 4575 cells (see FIG. 10 for more information).
Leukocyte Incubation with hFM Conditioned Medium. Conditioned medium from hFM explants was prepared as described previously (23). TL leukocytes were incubated with this single conditioned medium for 1 h at 37° C. and gentle agitation using a stir bar to prevent clumping. The supernatant was isolated via density centrifugation and used as the chemoattractant in an LMA to assess the further contribution of the leukocytes to the conditioned medium. This is referred to as ‘double conditioned medium.’ The pelleted TL leukocytes were resuspended in RPMI, and their responsiveness to GCF was assessed using an LMA.

With rytvela the “PTB (in words)” value (CD-1 mice [1]; FIG. 11A, n=5-7 per group) was “inhibited”, the fetal death (CD-1 mice [1]) was “normal GD 17 fetuses” and the fetal death (CD-1 mice [1]; listed as Rytvela) was “prevented fetal death”. The PTB rate (CD-1 mice [1]; rytvela co-administered with IL-1β (GD 16)) was 0%, the “neutrophil density in fetal brain” value (CD-1 mice [2]) was “blocked the increase in neutrophil density” and the “neutrophil density in lower (maternal) uterus” value (CD-1 mice [2]) was “blocked the increase in neutrophil density”. For the same molecule, the “leukocyte mRNA abundance of IL-1β, IL-6, TNF-α and CCL2” value [3] was “blocked”, the mouse leukocyte migration (mouse leukocytes) was “blocked” and the “neutrophil infiltration (invasion) of fetal membranes” value (IL-1 receptor) was “blocked”. The PTB (IL-1 receptor (IL-1R)) was “blocked” and the “transfer from mother to fetus” value [4] was “does not transfer from mother to fetus”.

B1: IL-1β: Interleukin (IL)-1β, mediator of infectious and sterile-inflammatory preterm birth; used to induce PTB in mice (protein, UniProt P10749 118-269, looked up)
Interleukin-1 beta: VPIRQLHYRLRDEQQKSLVLSDPYELKALHLNGQNINQQVIFSMSFVQGEPSNDKIPVALGLKGKNLYLSCVMKDGTPTLQLESVDPKQYPKKKMEKRFVFNKIEVKSKVEFESAEFPNWYISTSQAEHKPVFLGNNSGQDIIDFTMESVSS
In the case of B1, the PTB rate (CD-1 mice [1]; IL-1β administered on GD 16, PTB on GD 17) is reported as 86%, the fetal death (CD-1 mice [1]) is reported as “increased fetal death; also recorded: undergoing resorption” and the “neutrophil density in fetal brain” value (CD-1 mice [2]) is reported as “increased detection of Ly-6G+ neutrophils”. The “neutrophil density in lower (maternal) uterus” value (CD-1 mice [2]) was “increased detection of Ly-6G+ neutrophils”, the “KC protein in lower uterus” value (mouse lower uterus [5]) was “stimulated increases” and the “MIP-2 protein in lower uterus” value (mouse lower uterus [5]) was “stimulated increases”. For the same molecule, the lower uterine chemoattractant (mouse lower uterus [6]) was “did not stimulate an increase”, the mouse leukocyte migration (mouse leukocytes) was “increased leukocyte migration” and the “chemoattractant release from hFM explants” value (hFM explants; TNL and TL hFM explants -/+ IL-1β, TL leukocytes in LMA) was “did not promote more chemoattractant release”. For the same molecule, the “TNL leukocyte sensitivity to migration after hFM explant conditioned medium” value (hFM explants; hFM explants pretreated with IL-1β 6 h, TNL leukocytes incubated 1 h, TL chemoattractant) was “had no effect” and the leukocyte chemoattractant release (TL leukocytes) was “greater leukocyte chemoattractant release”.
